Data from patent US20050288307A1, “Anti-viral compounds” (priority 2002, published 2005).
Where two headings read alike, the source gives them in different places.

Tests used:
HIV-1RoJo/PBMC = test: Anti-HIV efficacy in fresh human PBMCs, strain RoJo; assay type: cell-based
Procedure: (§1) Fresh PBMCs, seronegative for HIV and HBV, were isolated from screened donors (Interstate Blood Bank, Inc. Memphis, Tenn.). Cells were pelleted/washed 2-3 times by low speed centrifugation and re-suspension in PBS to remove contaminating platelets. […] Banded PBMCs were gently aspirated from the resulting interface and subsequently washed with PBS by low speed centrifugation. […] The cells were allowed to incubate at 37° C. […] IL-2 is included in the culture medium to maintain the cell division initiated by the PHA mitogenic stimulation. PBMCs were maintained in this with bi-weekly medium changes until used in the assay protocol. Cells were kept in culture for a maximum of two weeks before being deemed too old for use in assays and discarded. Monocytes were depleted from the culture as the result of adherence to the tissue culture flask.
(§2) Tritiated thymidine triphosphate (^3H-TTP, 80 Ci/mmol, NEN) was received in 1:1 dH2O:Ethanol at 1 mCi/mL. Poly rA:oligo dT template:primer (Pharmacia) was prepared as a stock solution, followed by aliquoting and storage at −20° C. The RT reaction buffer was prepared fresh on a daily basis. The final reaction mixture was prepared by combining ^3H-TTP, dH2O, poly rA:oligo dT stock and reaction buffer. This reaction mixture was placed in a round bottom microtiter plate and supernatant containing virus was added and mixed. The plate was incubated at 37° C. for 60 minutes. Following incubation, the reaction volume was spotted onto DE81 filter-mats (Wallac), in a sodium phosphate buffer or 2×SSC (Life Technologies). Next they were washed in distilled water, in 70% ethanol, and then dried. Incorporated radioactivity (counts per minute, CPM) was quantified using standard liquid scintillation techniques.

[1] = Compound cytotoxicity in PBMC assay plates (MTS cell viability); details: human, TC50 (concentration decreasing cell viability by 50%)
HIV-1WeJo/PBMC = test: Anti-HIV efficacy in fresh human PBMCs, strain WeJo; assay type: cell-based
Procedure: as §1, §2

HIV-1 = test: Anti-viral cell-based assays; details: result in words
CaMKII = assay type: biochemical; details: Table 2
[2] = Human immunodeficiency virus 1, PBMC, read-out: IC50 (concentration inhibiting virus replication by 50%)
[3] = Human immunodeficiency virus 1, PBMC, read-out: IC90 (concentration inhibiting virus replication by 90%)

SMILES	melting point	TI (therapeutic index: TC50/IC50) (HIV-1RoJo/PBMC; HIV-1RoJo/PBMC)	IC50 (HIV-1RoJo/PBMC; Human immunodeficiency virus 1, read-out: IC50 (concentration inhibiting virus replication by 50%), HIV-1RoJo/PBMC)	IC90 (HIV-1RoJo/PBMC; Human immunodeficiency virus 1, read-out: IC90 (concentration inhibiting virus replication by 90%), HIV-1RoJo/PBMC)	CC50 at 7 days ([1]; HIV-1RoJo/PBMC)	CC50 at 7 days ([1]; HIV-1WeJo/PBMC)	TI (therapeutic index: TC50/IC50) (HIV-1WeJo/PBMC; HIV-1WeJo/PBMC)	IC50 (HIV-1WeJo/PBMC; Human immunodeficiency virus 1, read-out: IC50 (concentration inhibiting virus replication by 50%), HIV-1WeJo/PBMC)	IC90 (HIV-1WeJo/PBMC; Human immunodeficiency virus 1, read-out: IC90 (concentration inhibiting virus replication by 90%), HIV-1WeJo/PBMC)	anti-viral effectiveness as demonstrated by cell-based assays (HIV-1)	IC50 (CaMKII)	IC50 (HIV-1RoJo/PBMC; [2])	IC90 (HIV-1RoJo/PBMC; [3])	IC50 (HIV-1WeJo/PBMC; [2])	IC90 (HIV-1WeJo/PBMC; [3])
Cc1nc(C)c(-c2ccnc(Nc3ccc(I)cc3)n2)s1 [Compound 21, [4-(2,4-Dimethyl-thiazol-5-yl)-pyrimidin-2-yl]-(4-iodo-phenyl)-amine]	171 to 173 °C	495	0.062 µM	0.1 µM	31 µM	64 µM	2190	0.029 µM	0.048 µM	particularly effective anti-viral agents					
Cc1nc(N)sc1-c1ccnc(Nc2cccc([N+](=O)[O-])c2)n1 [Compound 105, [4-(2-Amino-4-methyl-thiazol-5-yl)-pyrimidin-2-yl]-(3-nitro-phenyl)-amine]					1.6 µM	0.2 µM				particularly effective anti-viral agents	> 100 µM	0.067 µM	0.35 µM	0.005 µM	0.014 µM
